Laboratory results as given in patent US20250084087A1, “BICYCLIC HETEROCYCLES AS MRGPRX2 ANTAGONISTS” (Incyte Corporation, priority 2023, published 2025).

Columns and labels:
MRGPRX2 [1] = target: T1, MRGPRX2 (Homo sapiens, UniProt Q96LB1); assay: MRGPRX2 IP1 HTRF assay; assay type: cell-based; design: host or cells: CHO-K1; conditions: CHO-K1 cells stably expressing human MRGPRX2; IP1 accumulation; agonist Cortistatin 14 1 μM
T1 sequence (Q96LB1 1-330): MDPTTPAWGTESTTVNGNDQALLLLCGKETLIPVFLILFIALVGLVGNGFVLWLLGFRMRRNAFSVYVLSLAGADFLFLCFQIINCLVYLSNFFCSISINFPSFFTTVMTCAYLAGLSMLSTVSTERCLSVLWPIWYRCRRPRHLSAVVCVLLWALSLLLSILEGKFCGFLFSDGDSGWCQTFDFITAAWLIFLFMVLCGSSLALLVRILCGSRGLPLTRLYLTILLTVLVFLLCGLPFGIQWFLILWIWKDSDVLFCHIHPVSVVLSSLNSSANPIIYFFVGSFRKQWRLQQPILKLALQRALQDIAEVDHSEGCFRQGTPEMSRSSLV
Description: Example B: MRGPRX2 IP1 HTRF Assay
This assay measures compound inhibition of myo-Inositol 1 phosphate (IP1) accumulation in CHO-K1 cells. Chinese hamster ovary (CHO-K1) cells stably expressing human MRGPRX2 were purchased from GenScript (Piscataway, NJ).
For the HTRF IP1 determination, an IP-One GqKit (Perkin Elmer Cisbio, Waltham, MA), which includes all reagents and buffers in this protocol, was used. The cells were maintained in culture medium (Ham's F-12K) containing 10% (v/v) FBS, and 200 μg/mL Zeocin. For the assay, the cells were harvested and resuspended in culture medium with 2% FBS and without Zeocin, then were passed through a 40 μm filter. Cells were added at 20000 cells in a 5 μL/well to a 384-well white small volume cell culture plate (Greiner VWR, Radnor, PA) which contained 50 nL/well of test compound serially diluted at a selected concentration range in DMSO. 5 μL/well of prepared 2× Stimulation Buffer2 was then added to plates and was incubated at 37° C. with 5% CO2 for 1 h. 5 μL/well of agonist Cortistatin 14 (Bio-TechneR&D Systems, Minneapolis, MN) in 1× Stimulation Buffer2, for a 1 μM final concentration, was then added to plates and incubated at 37° C. with 5% CO2 for 1 h. 6 μL/well of 1:20 diluted Detection Reagent Mix (d2 and Cryptate) was added to the plates and incubated for 1 h in the dark. Plates were read on the PHERAstar microplate reader (BMG Labtech Cary, NC) to determine the HTRF ratio of the acceptor and donor emission signals. The IP1 concentrations were calculated from a standard curve following the IP-One GQ kit instructions. Wells with DMSO only and wells with high concentration of reference antagonist were used as controls for normalization. Compound IC50 curves were globally fitted with 3- or 4-parameter Hill equation in a Genedata Screener (Genedata Basel, Switzerland).

MRGPRX2 [2] = target: T1, MRGPRX2; assay: MRGPRX2 β-Arrestin recruitment assay (PathHunter); assay type: cell-based; design: host or cells: CHO-K1 (PathHunter); conditions: PathHunter CHO-K1 MRGPRX2 β-Arrestin cell line; agonist Cortistatin 14 0.25 μM
Description: Example C: MRGPRX2 P-Arrestin Assay
This assay measures compound inhibition of P-Arrestin recruitment, which is part of the G protein-independent pathway that results from the ligand-activated GPCR phosphorylation by specific GPCR kinases. The PathHunter CHO-K1 MRPGRX2 B-Arrestin Cell line stably expressing ProLink tagged MRGPRX2 and Enzyme Acceptor Tagged B-Arrestin was purchased from Eurofins DiscoverX, (Fremont, CA).
The cells were maintained in culture medium from the Europhins DiscoverX Cell Culture Kit-107 which includes FBS, hygromycin B and G418. For the assay, the cells were harvested and were resuspended with Cell Plating Reagent 2 (Eurofins DiscoverX). Cells were added 10000 cells in 25 μL/well to a 384-well black cell culture plate (Greiner VWR, Radnor, PA) which contained 125 nL/well of compound at a selected serially diluted concentration range or DMSO. The plate was incubated at 37° C. with 5% CO2 for 1 h. 2 μL/well of agonist Cortistatin 14 was diluted in Protein Dilution Buffer, (Eurofins DiscoverX) for a final concentration of 0.25 μM, was added and the plate was incubated at 37° C. with 5% CO2 for 90 min. 14 μL/well of Detection Reagent Mix (PathHunter Detection Kit, Eurofins DiscoverX) was added to the plates and further incubated for 1 h in the dark. Plates were read on the PHERAstar microplate reader (BMG Labtech Cary, NC) measuring luminescence 0.1 to 1 second per well. Data was normalized using DMSO only wells and wells with high concentration of reference antagonist as controls. Compound IC50 curves were globally fitted with 3- or 4-parameter Hill equation in a Genedata Screener (Genedata Basel, Switzerland).

IC50 (MRGPRX2 [1]) [nM] | IC50 (MRGPRX2 [2]) [nM] | SMILES
0.1 to 100 | 0.1 to 100 | O=C(N[C@@H]1CC[C@@H](O)C1)N1CC(CNc2cc(C(F)(F)F)nc3cc(C(F)(F)F)nn23)(c2ccc(F)cc2)C1 [Example 53, 3-(((2,5-Bis(trifluoromethyl)pyrazolo[1,5-a]pyrimidin-7-yl)amino)methyl)-3-(4-fluorophenyl)-N-((1R,3R)-3-hydroxycyclopentyl)azetidine-1-carboxamide]
0.1 to 100 | 0.1 to 100 | O=C(N[C@H]1CC[C@](O)(C(F)(F)F)CC1)N1CC(CNc2cc(C(F)(F)F)nc3cc(C(F)(F)F)nn23)(c2ccc(F)cc2)C1 [Example 54, 3-(((2,5-Bis(trifluoromethyl)pyrazolo[1,5-a]pyrimidin-7-yl)amino)methyl)-3-(4-fluorophenyl)-N-((1s,4s)-4-hydroxy-4-(trifluoromethyl)cyclohexyl)azetidine-1-carboxamide]
0.1 to 100 | 0.1 to 100 | CC(C)(O)[C@H]1CC[C@H](NC(=O)N2CC(CNc3cc(C(F)(F)F)nc4cc(C(F)(F)F)nn34)(c3ccc(F)cc3)C2)CC1 [Example 55, 3-(((2,5-Bis(trifluoromethyl)pyrazolo[1,5-a]pyrimidin-7-yl)amino)methyl)-3-(4-fluorophenyl)-N-((1r,4r)-4-(2-hydroxypropan-2-yl)cyclohexyl)azetidine-1-carboxamide]
0.1 to 100 | 0.1 to 100 | O=C(N[C@@H]1CC[C@@H](O)C1)N1CCC(CNc2cc(C(F)(F)F)nc3cc(C(F)(F)F)nn23)(c2ccc(F)cc2)CC1 [Example 56, 4-(((2,5-Bis(trifluoromethyl)pyrazolo[1,5-a]pyrimidin-7-yl)amino)methyl)-4-(4-fluorophenyl)-N-((1R,3R)-3-hydroxycyclopentyl)piperidine-1-carboxamide]
0.1 to 100 | 0.1 to 100 | N#CC12CC(NC(=O)N3CC(CNc4cc(C(F)(F)F)nc5cc(C(F)(F)F)nn45)(c4cc(F)cc(F)c4)C3)(C1)C2 [Example 65, 3-(((2,5-Bis(trifluoromethyl)pyrazolo[1,5-a]pyrimidin-7-yl)amino)methyl)-N-(3-cyanobicyclo[1.1.1]pentan-1-yl-3-3,5-difluorophenyl)azetidine-1-carboxamide]
0.1 to 100 | 0.1 to 100 | O=C(N[C@H]1CC[C@H](O)CC1)N1CC(CNc2cc(C3CC3)nc3cc(C(F)(F)F)nn23)(c2ccc(F)cc2)C1 [Example 69, 3-(((5-Cyclopropyl-2-(trifluoromethyl)pyrazolo[1,5-a]pyrimidin-7-yl)amino)methyl)-3-(4-fluorophenyl)-N-((1r,4r)-4-hydroxycyclohexyl)azetidine-1-carboxamide]
0.1 to 100 | 0.1 to 100 | CCc1cc(NCC2(c3ccc(F)cc3)CN(C(=O)NCC(F)(F)F)C2)n2nc(C(F)(F)F)cc2n1 [Example 71, 3-(((5-Ethyl-2-(trifluoromethyl)pyrazolo[1,5-a]pyrimidin-7-yl)amino)methyl)-3-(4-fluorophenyl)-N-(2,2,2-trifluoroethyl)azetidine-1-carboxamide]
0.1 to 100 | 0.1 to 100 | CC(C)(O)CNC1CC(CNc2cc(C(F)(F)F)nc3cc(C(F)(F)F)nn23)(c2ccc(F)cc2)C1 (centres unmarked) [Example 73, 1-((3-(((2,5-Bis(trifluoromethyl)pyrazolo[1,5-a]pyrimidin-7-yl)amino)methyl)-3-(4-fluorophenyl)cyclobutyl)amino)-2-methylpropan-2-ol]
0.1 to 100 | 0.1 to 100 | CC(C)(O)CNC1CCC(CNc2cc(C(F)(F)F)nc3cc(C(F)(F)F)nn23)(c2ccc(F)cc2)CC1 (centres unmarked) [Example 74, 1-((4-(((2,5-Bis(trifluoromethyl)pyrazolo[1,5-a]pyrimidin-7-yl)amino)methyl)-4-(4-fluorophenyl)cyclohexyl)amino)-2-methylpropan-2-ol]
0.1 to 100 | 0.1 to 100 | Cn1ccc(N2CC(CNc3cc(C(F)(F)F)nc4cc(C(F)(F)F)nn34)(c3ccc(F)cc3)C2)nc1=O [Example 90, 4-(3-(((2,5-Bis(trifluoromethyl)pyrazolo[1,5-a]pyrimidin-7-yl)amino)methyl)-3-(4-fluorophenyl)azetidin-1-yl)-1-methylpyrimidin-2(1H)-one]
